In brackets after ≈: the same amount, converted by molar mass. Activity calls are given as the source filed them. The calls are words filed in the database; no cut-off is given here.
How the values were obtained:
[1] = target: DNA topoisomerase II (Homo sapiens) (UniProt P11388+Q02880); experiment: Double strand DNA breakage reflecting stabilization of DNA topoisomerase II intermediate by the compound expressed in terms of ng of DNA/unit of enzyme/mM of drug
P388 [2] = experiment: In vivo antitumor activity against Murine P388 murine leukemia cell line up to a conc of 100 mg/kg; IA - Totally inactive; format: functional, organism-based; parameters: dose 100 mg/kg; settings: Mus musculus
P388 [3] = experiment: In vivo antitumor activity against Murine P388 murine leukemia cell line up to a conc of 100 mg/kg; A - Active; format: functional, organism-based; parameters: dose 100 mg/kg; settings: Mus musculus
HCT-116 = experiment: In vitro inhibition of compound against HCT/VP35 cell lines was determined after 72 hr of administration of the dose; format: functional, cell-based; settings: Homo sapiens, HCT-116, 72 h
HCT cell line = experiment: In vitro inhibition of compound against HCT cell lines was determined after 72 hr of administration of the dose; format: functional, cell-based; settings: Homo sapiens
[4] = Resistance ratio was determined as the ratio of resistance to cytotoxicity against human colon tumor (HCT116) to that of (HCT/VP35) cells grown in culture; format: functional

DSB [1]	Compound	Activity (P388 [2])	further results
346	COc1cc([C@@H]2c3cc4c(cc3[C@@H](O[C@@H]3O[C@@H]5CO[C@@H](c6cccs6)O[C@H]5[C@H](O)[C@H]3O)[C@H]3COC(=O)[C@H]23)OCO4)cc(OC)c1O	–	–
42	C=CCc1c(OC)cc([C@@H]2c3cc4c(cc3[C@@H](O[C@@H]3O[C@@H]5CO[C@@H](c6cccs6)O[C@H]5[C@H](O)[C@H]3O)[C@H]3COC(=O)[C@H]23)OCO4)cc1OC	–	–
49	COc1cc([C@@H]2c3cc4c(cc3[C@@H](O[C@@H]3O[C@@H]5CO[C@@H](c6cccs6)O[C@H]5[C@H](O)[C@H]3O)[C@H]3COC(=O)[C@H]23)OCO4)cc(OC)c1C	inactive	–
17	C=Cc1c(OC)cc([C@@H]2c3cc4c(cc3[C@@H](O[C@@H]3O[C@@H]5CO[C@@H](C)O[C@H]5[C@H](O)[C@H]3O)[C@H]3COC(=O)[C@H]23)OCO4)cc1OC	inactive	–
26	COc1cc([C@@H]2c3cc4c(cc3[C@@H](O[C@@H]3O[C@@H]5CO[C@@H](C)O[C@H]5[C@H](O)[C@H]3O)[C@H]3COC(=O)[C@H]23)OCO4)cc(OC)c1C	–	Activity (P388 [3]): Active; IC50 (HCT-116): 5.7 µg/mL (≈ 9.72 µM); IC50 (HCT cell line): 5.7 µg/mL (≈ 9.72 µM)
305	COc1cc([C@@H]2c3cc4c(cc3[C@@H](O[C@@H]3O[C@@H]5CO[C@@H](C)O[C@H]5[C@H](O)[C@H]3O)[C@H]3COC(=O)[C@H]23)OCO4)cc(OC)c1O	–	–
27	COc1cc(OC)cc([C@@H]2c3cc4c(cc3[C@@H](O[C@@H]3O[C@@H]5CO[C@@H](C)O[C@H]5[C@H](O)[C@H]3O)[C@H]3COC(=O)[C@H]23)OCO4)c1	–	Resistance ratio [4]: 0.5
17	C=CCc1c(OC)cc([C@@H]2c3cc4c(cc3[C@@H](O[C@@H]3O[C@@H]5CO[C@@H](C)O[C@H]5[C@H](O)[C@H]3O)[C@H]3COC(=O)[C@H]23)OCO4)cc1OC	inactive	–

Reference: ChEMBL document CHEMBL1126345, “Synthesis of biological evaluation of 4-deshydroxy-4-methyl etoposide and teniposide analogs” (Bioorg Med Chem Lett, 1992)
